Laboratory results from PMC4193996 (Journal of Experimental & Clinical Cancer Research : CR, 2014).

What was measured:
[1] = system: hairpin duplex, 5'-biotin-CGA3T3C(CT)2GA3T3CG (DNA, hairpin) CGAAATTTCCTCTGAAATTTCG; experiment: SPR
[2] = target: human recombinant β2 adrenergic receptor (Homo sapiens, UniProt P07550); experiment: β2 adrenergic receptor inhibition assay; type: binding; settings: read-out: β2 adrenergic % inh @1 μM
Procedure: hEGR study and the M2 and the β2 receptor inhibition assay were performed as previously reported.
The new G-quadruplex ligands were designed in an attempt to obtain molecules with improved toxicological and on-target profiles, but maintaining the same favorable chemical and pharmacological features of the lead compound 1. With the aim of selecting the best variants, a step by step comparative analysis of their off- and on-target properties was performed. Initially the new molecules were tested for their ability to interact with and inhibit the human recombinant β2 adrenergic and M2 muscarinic receptors, and to reduce the hERG tail current in a patch clamp assay. […] Therefore, we might expect that the new ligands would impair cardiac functionality to a lesser extent than the lead molecule does.

[3] = system: alternating hairpin duplex sequence 5'-biotin-CGA3T3C(CT)2GA3T3CG; experiment: SPR binding to duplex DNA
Procedure: Oligonucleotides 5’-biotin-d [AG3 (T2AG3)3] quadruplex and 5’-biotin-CGA3T3C(CT)2GA3T3CG were purchased from Midland Certified Reagent Company (Midland, TX). Purification of DNA, preparation of solutions, collection of data, and analysis of results were conducted according to methods adopted in an earlier study.
This technique takes advantage of the refractive index change elicits by the binding of the drug with the h-Tel quadruplex DNA sequence 5’-d[AGGG(TTAGGG)3]-3’ or an alternating hairpin duplex sequence immobilized on a sensor chip surface.

[4] = system: human colon cancer cell line HT-29; experiment: MTT proliferation assay, HT-29; type: cell-based; settings: 96 hours
Procedure: Normal WI-38 diploid human lung fibroblasts and the human colorectal adenocarcinoma HT29 cells were obtained from American Type Culture Collection (Manassas, VA, USA). BJ fibroblasts expressing hTERT and SV40 early region (BJ-EHLT) were obtained as previously reported. Cells were grown in Dulbecco Modified Eagle Medium (D-MEM, Invitrogen Carlsbad, CA, USA) supplemented with 10% fetal calf serum, 2 mM L-glutamin and antibiotics.
MTT (3-(4,5-Dimethylthiazol-2-yl)-2,5-diphenyltetrazolium Bromide) assay was performed in treated and untreated cells for 96 hours. Cells were incubated with MTT solution (Sigma-Aldrich), and the purple formazan crystals were dissolved in isopropanol. Optical densities (OD) at 540 nm was determined on microplate reader.
Firstly, we investigated if they were able to efficiently promote growth inhibition of tumor cells without affecting the survival of normal cells in vitro. In Table 1 we report for each compound the concentration causing 50% of growth inhibition (GI50) calculated by performing a proliferation assay in the human colon cancer cell line HT-29 or in the human ‘normal’ lung WI-38 cells. […] On the basis of results described so far, we decided to exclude from the further analysis ligand 10 for its high value of hERG inhibition (95%) (Table 1).

BJ-EHLT fibroblasts [5] = experiment: γ-H2AX/TRF1 colocalization (TIFs, telomere uncapping); type: cell-based, human
Procedure: (§1) Cells were fixed in 2% formaldehyde and permeabilized in 0.25% Triton X100 in PBS for 5 min at room temperature. For immunolabeling, cells were incubated with primary antibody, then washed in PBS and incubated with the secondary antibodies. The following primary antibodies were used: pAb and mAb anti-TRF1(Abcam Ltd.; Cambridge UK); mAb (Upstate, Lake Placid, NY) and pAb anti-γH2AX (Abcam); mAb anti-PCNA (Sigma Chemicals, Milano, Italy). The following secondary antibody were used: TRITC conjugated Goat anti Rabbit, FITC conjugated Goat anti Mouse (Jackson ImmunoResearch Europe Ltd., Suffolk, UK). Fluorescence signals were recorded by using a Leica DMIRE2 microscope equipped with a Leica DFC 350FX camera and elaborated by a Leica FW4000 deconvolution software (Leica, Solms, Germany). This system permits to focus single planes inside the cell generating 3D highresolution images. For quantitative analysis of γH2AX positivity, 200 cells on triplicate slices were scored. For TIFs analysis, in each nucleus a single plane was analyzed and at least 50 nuclei per sample were scored.
Unfortunately, we were not able to test compounds 4, 5 and the 0,5 μM dose of 3 as they were fluorescent in both red and green channels. […] To ascertain whether γ-H2AX was phosphorylated in response to dysfunctional telomeres, double immunofluorescence experiments were processed by confocal microscopy. We observed that some of the γ-H2AX foci induced by G4-ligands colocalized with TRF1, a good marker for interphase telomeres, forming the so-called telomere dysfunction-induced foci (TIFs) (Figure 2B).
Figure 2 DNA damage activation at telomeres. BJ-EHLT fibroblasts were treated for 24 hrs with compound 1 and the indicated ligands at the doses 0.1 (light-grey bars) and 0.5 μM (dark-grey bars). Cells were processed for immunofluorescence (IF) using antibodies against γ-H2AX and TRF1 to mark DNA damage and telomeres respectively. Percentages of γ-H2AX- (A) and TIF-positive (B) treated and untreated cells are reported in the histograms. (C) Mean number of TIFs in the indicated samples. Cells with four or more γ-H2AX/TRF1 foci were scored as TIF positive. Error bars indicate the standard deviation. (D) Representative images of IF of untreated and 1, 3, 6 and 8-treated BJ-EHLT cells. Enlarged views of TIFs are reported on the right of the merged images. The images were acquired with a Leica Deconvolution microscope (magnification 100x). (E) Cells treated as in (A) were processed for IF of γ-H2AX and PCNA to mark replicating cells. Percentage of γ-H2AX+/PCNA- or γ-H2AX+/PCNA + nuclei in the indicated samples are reported in the histograms.

BJ-EHLT fibroblasts [6] = experiment: γ-H2AX/PCNA co-immunostaining (replication-dependent DNA damage); type: cell-based, human; settings: 24 hrs
Procedure: as §1
Figure 2 DNA damage activation at telomeres. BJ-EHLT fibroblasts were treated for 24 hrs with compound 1 and the indicated ligands at the doses 0.1 (light-grey bars) and 0.5 μM (dark-grey bars). […] Cells with four or more γ-H2AX/TRF1 foci were scored as TIF positive. […]

Chain of human recombinant β2 adrenergic receptor (P07550 whole entry): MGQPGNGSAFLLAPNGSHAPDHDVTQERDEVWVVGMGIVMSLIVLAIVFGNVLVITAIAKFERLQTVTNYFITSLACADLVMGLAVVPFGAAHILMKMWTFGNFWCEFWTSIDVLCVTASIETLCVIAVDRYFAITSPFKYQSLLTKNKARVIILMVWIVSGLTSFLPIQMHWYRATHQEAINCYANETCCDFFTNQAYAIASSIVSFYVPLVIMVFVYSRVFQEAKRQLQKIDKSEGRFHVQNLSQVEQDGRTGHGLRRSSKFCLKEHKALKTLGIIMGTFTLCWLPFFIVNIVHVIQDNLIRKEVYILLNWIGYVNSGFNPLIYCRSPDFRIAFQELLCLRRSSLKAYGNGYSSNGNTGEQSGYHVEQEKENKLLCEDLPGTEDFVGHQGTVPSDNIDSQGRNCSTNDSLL

Structure (SMILES): CC(=O)NCC#Cc1ccc2c3cccc4c3c([n+](C)c2c1)-c1ccccc1N4C [Compound 8]
- K [1]: 900000 M⁻¹
- inhibition at 1 µM [2]: 2%
- Duplex DNA affinity K [3]: 0,9 x10^6 M^−1
- GI50 [4]: 0.75 µM
- mean TIFs per nucleus (BJ-EHLT fibroblasts [5]; 24 hrs): about seven
- percentage of cells with more than four γ-H2AX/TRF1 colocalizations (TIF-positive) (BJ-EHLT fibroblasts [5]; 24 hrs, 0,5 μM): ~40%
- γ-H2AX foci formation relative to PCNA status (BJ-EHLT fibroblasts [6]): almost exclusively restricted to PCNA-positive
